Laboratory results: US7498330B2, “4-oxo-4,6,7,8-tetrahydro-pyrrolo[1,2-a]pyrazine-6-carboxamide compounds” (Les Laboratories Servier, priority 2004, dated 2009)
pIC50: −log10 of the molar value. Counter-ions that a name gives are not always drawn.

The molecules below were run against T1, human thrombin (Homo sapiens, UniProt P00734) (assay: Inhibition of human thrombin activity on human fibrinogen (fibrin formation, 405 nm)). Conditions: thrombin 0.7 nM, purified human fibrinogen, pre-incubation 20° C. 10 minutes, pH 7.4; read-out: IC50 (concentration of the compounds that inhibits 50% of the enzymatic activity of the thrombin).
T1 construct: human thrombin (Sigma, specific activity 3230 UNIH/mg); purchased Sigma
Type: biochemical
Procedure: For in vitro evaluation of the inhibitory activity of the products of the invention on human thrombin (Sigma, specific activity 3230 UNIH/mg), purified human fibrinogen ([…], Stago) (Fg) was added to a given amount of thrombin (0.7 nM) that had previously been incubated with or without the inhibitor to be tested (20° C., 10 minutes).
Inhibitors, enzymes and substrates are diluted in the same buffer ([…] phosphate buffer, pH 7.4, containing 0.12 M sodium chloride and 0.05% bovine serum albumin) and then distributed on a polystyrene microtitre plate in a volume of 50 μl.
The fibrin formed by the thrombin is measured using a spectrophotometer at 405 nm after from 10 to 15 minutes' reaction at 20° C.
The table below gives in nM the concentration of the compounds that inhibits 50% of the enzymatic activity (IC50) of the thrombin compared with the control without product.

Row | Structure (SMILES) | pIC50
1 | O=C(NCc1ccccc1F)C1CCc2cnc(NCC(F)(F)c3cccc[n+]3[O-])c(=O)n21 (racemic) [Example 1, 3-{[2,2-Difluoro-2-(1-oxido-2-pyridyl)ethyl]amino}-N-(2-fluorobenzyl)4-oxo-4,6,7,8-tetrahydropyrrolo[1,2-a]pyrazine-6-carboxamide] | 7.55
2 | O=C(NCc1ccccc1Cl)C1CCc2cnc(NCC(F)(F)c3cccc[n+]3[O-])c(=O)n21 (racemic) [Example 8, 3-{[2,2-Difluoro-2-(1-oxido-2-pyridyl)ethyl]amino}-N-(2-chlorobenzyl)-4-oxo-4,6,7,8-tetrahydropyrrolo[1,2-a]pyrazine-6-carboxamide] | 7.42
3 | O=C(NCc1ccccc1F)[C@@H]1CCc2cnc(NCC(F)(F)c3cccc[n+]3[O-])c(=O)n21 [Example 3, (6S)-3-{[2,2-Difluoro-2-(1-oxido-2-pyridyl)ethyl]amino}-N-(2-fluorobenzyl)-4-oxo-4,6,7,8-tetrahydropyrrolo[1,2-a]pyrazine-6-carboxamide] | 7.80
4 | O=C(COc1ccccc1CNC(=O)C1CCc2cnc(NCC(F)(F)c3cccc[n+]3[O-])c(=O)n21)NCCc1ccccn1 (stereo not shown) [Example 15, 3-{[2,2-Difluoro-2-(1-oxido-2-pyridyl)ethyl]amino}4-oxo-N-[2-(2-oxo-2-{[2-(2-pyridyl)ethyl]amino}ethoxy)benzyl]-4,6,7,8-tetrahydropyrrolo[1,2-a]pyrazine-6-carboxamide hydrochloride] | 8.85
5 | O=C(NCc1c(F)ccc(F)c1F)[C@@H]1CCc2cnc(NCC(F)(F)c3cccc[n+]3[O-])c(=O)n21 [Example 21, (6S)-3-{[2,2-Difluoro-2-(1-oxido-2-pyridyl)ethyl]amino}-N-(2,3,6-trifluorobenzyl)-4-oxo-4,6,7,8-tetrahydropyrrolo[1,2-a]pyrazine-6-carboxamide] | 7.96
6 | O=C(NCc1cccs1)[C@@H]1CCc2cnc(NCC(F)(F)c3cccc[n+]3[O-])c(=O)n21 [Example 24, (6S)-3-{[2,2-Difluoro-2-(1-oxido-2-pyridyl)ethyl]amino}-N-(2-thienylmethyl)-4-oxo-4,6,7,8-tetrahydropyrrolo[1,2-a]pyrazine-6-carboxamide hydrochloride] | 7.22
7 | O=C(NCc1ccccc1F)[C@@H]1CCc2cnc(NCC(F)(F)c3ccc4ccccc4[n+]3[O-])c(=O)n21 [Example 31, (6S)-3-{[2,2-Difluoro-2-(1-oxido 2-quinolinyl)ethyl]amino}-N-(2-fluorobenzyl)4-oxo-4,6,7,8-tetrahydropyrrolo[1,2-a]pyrazine 6-carboxamide] | 8.08
